Target: T1, CRTH2 (KB8 cells) (Homo sapiens, UniProt Q9Y5Y4)
T1 construct: host or cells: KB8 cells (human CRTH2 expression cell)
T1 sequence (Q9Y5Y4 1-395): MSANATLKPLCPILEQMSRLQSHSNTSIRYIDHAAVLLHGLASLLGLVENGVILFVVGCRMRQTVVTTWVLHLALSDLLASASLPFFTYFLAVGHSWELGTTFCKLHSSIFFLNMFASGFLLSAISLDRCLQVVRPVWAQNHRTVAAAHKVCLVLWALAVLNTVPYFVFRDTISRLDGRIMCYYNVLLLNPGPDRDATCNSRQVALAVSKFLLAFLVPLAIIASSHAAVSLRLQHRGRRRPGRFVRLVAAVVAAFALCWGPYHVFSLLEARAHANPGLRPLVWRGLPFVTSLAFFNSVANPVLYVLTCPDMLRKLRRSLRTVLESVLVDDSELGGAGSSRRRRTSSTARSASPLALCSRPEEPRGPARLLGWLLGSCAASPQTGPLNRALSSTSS
Assay: CRTH2 antagonist test (PGD2-induced intracellular calcium ion concentration increase in KB8 cells)
Type: cell-based
Conditions: PGD2 100 nM, Fluo-4 calcium fluorescence, read-out: CRTH2 antagonist activity IC50 value
Protocol: The antagonist activity of the compound of the present invention was considered by using the intracellular calcium ion concentration increase reaction induced when the prostaglandin D2 was added to KB8 cells.
Fluo-4-AM (4-(6-acetoxymethoxy-2,7-difluoro-3-oxo-9-xanthenyl)-4′-methyl-2,2′-(ethylenedioxy)dianilide-N,N,N′,N′-tetraacetic acid tetrakis(acetoxymethyl) ester (SIGMA, final concentration: 1 μM) was added to KB8 cells, and the cells were incubated at 37° C. for 30 min, washed with phosphate buffer (Invitrogen), and then suspended in Hank's balanced salt solution (Invitrogen)) containing a reaction buffer solution (10 mM HEPES (Invitrogen), and 1 mM calcium chloride (SIGMA). The suspension was dispensed in a 96 well plate (Nunc) so that 2×10^5 cells/well were placed, and the compound of the present invention and PGD2 (final concentration: 100 nM) were added. The fluorescence intensity thereof was measured over time by using FDSS6000 (Hamamatsu Photonics), and thus the maximum fluorescence intensity value “d” was obtained. The same procedure was carried out in the absence of the compound, and the maximum fluorescence intensity value “e” was obtained; and the same procedure was carried out in the absence of the compound and […], and the maximum fluorescence intensity value “f” was obtained.
The calcium ion concentration increase inhibition rate of a compound was calculated by the following calculation formula: Inhibitory rate(%)=[1−(d−f)/(e−f)]×100
That is to say, by using calcium ion concentration increase inhibitory rates of compounds to be tested having various concentrations, the IC50 value was calculated according to a dose-dependent inhibition curve analyzed by using XLfit (IDBS) as a data analysis software, and the value was defined as an indicator of the antagonist activity. In Tables, A denotes an inhibitory activity showing the IC50 value of less than 50 nM; B denotes an inhibitory activity showing the IC50 value of 50 nM or greater and less than 500 nM; C denotes an inhibitory activity showing the IC50 value of 500 nM or greater and less than 1000 nM; and D denotes an inhibitory activity showing the IC50 value of 1000 nM or greater.

Row | IC50 [nM] | SMILES
1 | 2.3 | O=C(O)Cc1cnc(C(=O)c2ccc(NC(=O)c3cc4cc(F)ccc4[nH]3)cc2)c2ccccc12 [Example 122]

Same assay, conditions: PGD2 final concentration 100 nM, Fluo-4-AM fluorescence, read-out: antagonist activity (IC50 value, inhibition of calcium ion concentration increase)

Row | IC50 [nM] | SMILES
2 | 50 to 500 | O=C(O)Cc1cnc(C(=O)c2ccc(NC(=O)C3Cc4ccccc4C3)cc2)c2ccccc12 [Example 60]
3 | 50 to 500 | Cc1cc(F)ccc1C(=O)Nc1ccc(C(=O)c2ncc(CC(=O)O)c3ccccc23)cc1 [Example 61]
4 | 50 to 500 | Cc1ccc(F)cc1C(=O)Nc1ccc(C(=O)c2ncc(CC(=O)O)c3ccccc23)cc1 [Example 62]
5 | 50 to 500 | COc1cc(C(=O)Nc2ccc(C(=O)c3ncc(CC(=O)O)c4ccccc34)cc2)cc(OC)c1OC [Example 63]
6 | < 50 | C=Cc1ccc(C(=O)Nc2ccc(C(=O)c3ncc(CC(=O)O)c4ccccc34)cc2)cc1 [Example 64]
7 | 500 to 1000 | CC(C)=CC(=O)Nc1ccc(C(=O)c2ncc(CC(=O)O)c3ccccc23)cc1 [Example 65]
8 | ≥ 1000 | O=C(O)Cc1cnc(C(=O)c2ccc(NC(=O)c3cccnc3)cc2)c2ccccc12 [Example 66]
9 | 50 to 500 | O=C(O)Cc1cnc(C(=O)c2ccc(NC(=O)c3ccc4ncccc4c3)cc2)c2ccccc12 [Example 67]
10 | 50 to 500 | Cc1ccc(S(=O)(=O)NCC(=O)Nc2ccc(C(=O)c3ncc(CC(=O)O)c4ccccc34)cc2)cc1 [Example 68]
11 | ≥ 1000 | O=C(O)Cc1cnc(C(=O)c2ccc(NC(=O)c3cnccn3)cc2)c2ccccc12 [Example 69]
12 | 50 to 500 | O=C(O)Cc1cnc(C(=O)c2ccc(NC(=O)c3cccc(Cl)c3F)cc2)c2ccccc12 [Example 70]
13 | 50 to 500 | O=C(O)Cc1cnc(C(=O)c2ccc(NC(=O)c3cccc(F)c3)cc2)c2ccccc12 [Example 71]
14 | < 50 | COc1cccc(C(=O)Nc2ccc(C(=O)c3ncc(CC(=O)O)c4ccccc34)cc2)c1 [Example 72]
15 | < 50 | Cc1cccc(C(=O)Nc2ccc(C(=O)c3ncc(CC(=O)O)c4ccccc34)cc2)c1 [Example 73]
16 | 50 to 500 | CS(=O)(=O)c1ccc(C(=O)Nc2ccc(C(=O)c3ncc(CC(=O)O)c4ccccc34)cc2)cc1 [Example 74]
17 | 50 to 500 | O=C(O)Cc1cnc(C(=O)c2ccc(NC(=O)C3CCCCC3)cc2)c2ccccc12 [Example 76]
18 | < 50 | O=C(O)Cc1cnc(C(=O)c2ccc(NC(=O)CCC3CCCCC3)cc2)c2ccccc12 [Example 77]
19 | < 50 | C/C(=C\c1ccccc1)C(=O)Nc1ccc(C(=O)c2ncc(CC(=O)O)c3ccccc23)cc1 [Example 78]
20 | ≥ 1000 | O=C(O)Cc1cnc(C(=O)c2ccc(NC(=O)c3ccc(C(=O)O)cc3)cc2)c2ccccc12 [Example 79]
21 | 50 to 500 | CCCCC(=O)Nc1ccc(C(=O)c2ncc(CC(=O)O)c3ccccc23)cc1 [Example 80]
22 | ≥ 1000 | O=C(O)Cc1cnc(C(=O)c2ccc(NC(=O)C3CCOCC3)cc2)c2ccccc12 [Example 81]

Row | IC50 [nM] | SMILES
23 | < 50 | COc1ccc(/C=C/C(=O)Nc2ccc(C(=O)c3ncc(CC(=O)O)c4ccccc34)cc2)cc1 [Example 84]
24 | < 50 | O=C(O)Cc1cnc(C(=O)c2ccc(NC(=O)c3c[nH]c4ccccc34)cc2)c2ccccc12 [Example 85]
25 | 50 to 500 | O=C(O)Cc1cnc(C(=O)c2ccc(NC(=O)c3cnc4ccccc4n3)cc2)c2ccccc12 [Example 86]
26 | 50 to 500 | O=C(O)Cc1cnc(C(=O)c2ccc(NC(=O)COc3ccc(Cl)cc3)cc2)c2ccccc12 [Example 87]
27 | < 50 | O=C(O)Cc1cnc(C(=O)c2ccc(NC(=O)c3csc4ccccc34)cc2)c2ccccc12 [Example 88]
28 | < 50 | O=C(O)Cc1cnc(C(=O)c2ccc(NC(=O)c3ccc(O)cc3)cc2)c2ccccc12 [Example 89]
29 | 50 to 500 | O=C(O)Cc1cnc(C(=O)c2ccc(NC(=O)C3=CCCCC3)cc2)c2ccccc12 [Example 90]
30 | < 50 | O=C(O)Cc1cnc(C(=O)c2ccc(NC(=O)c3ccc(C(=O)c4ccccc4)cc3)cc2)c2ccccc12 [Example 91]
31 | < 50 | O=C(O)Cc1cnc(C(=O)c2ccc(NC(=O)c3ccc4ccccc4n3)cc2)c2ccccc12 [Example 93]
32 | < 50 | O=C(O)Cc1cnc(C(=O)c2ccc(NC(=O)c3cc4c([nH]3)CCCC4)cc2)c2ccccc12 [Example 94]
33 | 50 to 500 | O=C(O)Cc1cnc(C(=O)c2ccc(NC(=O)c3c[nH]c4ncccc34)cc2)c2ccccc12 [Example 95]
34 | < 50 | COc1ccc2[nH]c(C(=O)Nc3ccc(C(=O)c4ncc(CC(=O)O)c5ccccc45)cc3)cc2c1 [Example 96]
35 | ≥ 1000 | O=C(O)Cc1cnc(C(=O)c2ccc(NC(=O)c3c[nH]cn3)cc2)c2ccccc12 [Example 97]
36 | ≥ 1000 | O=C(O)Cc1cnc(C(=O)c2ccc(NC(=O)c3cccnn3)cc2)c2ccccc12 [Example 98]
37 | < 50 | Cc1ccc(C(=O)Nc2ccc(C(=O)c3ncc(CC(=O)O)c4ccccc34)cc2)cc1Cl [Example 99]
38 | < 50 | COc1cc(C(=O)Nc2ccc(C(=O)c3ncc(CC(=O)O)c4ccccc34)cc2)ccc1C [Example 100]
39 | < 50 | Cc1ccc(C(=O)Nc2ccc(C(=O)c3ncc(CC(=O)O)c4ccccc34)cc2)cc1C [Example 101]
40 | < 50 | Cc1ccc2sc(C(=O)Nc3ccc(C(=O)c4ncc(CC(=O)O)c5ccccc45)cc3)cc2c1 [Example 102]
41 | < 50 | Cc1cc(C)cc(C(=O)Nc2ccc(C(=O)c3ncc(CC(=O)O)c4ccccc34)cc2)c1 [Example 103]
42 | ≥ 1000 | O=C(O)Cc1cnc(C(=O)c2ccc(NC(=O)c3cccc4cccnc34)cc2)c2ccccc12 [Example 104]
43 | 500 to 1000 | O=C(O)Cc1cnc(C(=O)c2ccc(NC(=O)c3ccc4cccnc4n3)cc2)c2ccccc12 [Example 105]

Row | IC50 [nM] | SMILES
44 | 50 to 500 | COc1ccc(C(=O)Nc2ccc(C(=O)c3ncc(CC(=O)O)c4ccccc34)cc2)cc1OC [Example 106]
45 | < 50 | Cc1cc(C(=O)Nc2ccc(C(=O)c3ncc(CC(=O)O)c4ccccc34)cc2)ccc1Cl [Example 107]
46 | < 50 | COc1ccc(C(=O)Nc2ccc(C(=O)c3ncc(CC(=O)O)c4ccccc34)cc2)cc1Cl [Example 108]
47 | 50 to 500 | NS(=O)(=O)c1ccc(C(=O)Nc2ccc(C(=O)c3ncc(CC(=O)O)c4ccccc34)cc2)cc1 [Example 109]
48 | < 50 | CCCOc1ccc(C(=O)Nc2ccc(C(=O)c3ncc(CC(=O)O)c4ccccc34)cc2)cc1 [Example 110]
49 | < 50 | CC(C)(C)c1ccc(C(=O)Nc2ccc(C(=O)c3ncc(CC(=O)O)c4ccccc34)cc2)cc1 [Example 111]
50 | < 50 | O=C(O)Cc1cnc(C(=O)c2ccc(NC(=O)c3cnc4ccccc4c3)cc2)c2ccccc12 [Example 112]
51 | < 50 | O=C(O)Cc1cnc(C(=O)c2ccc(NC(=O)c3cc4ccccc4cn3)cc2)c2ccccc12 [Example 113]
52 | < 50 | O=C(O)Cc1cnc(C(=O)c2ccc(NC(=O)c3ccc(C4CCCCC4)cc3)cc2)c2ccccc12 [Example 114]
53 | < 50 | CC(C)Oc1ccc(C(=O)Nc2ccc(C(=O)c3ncc(CC(=O)O)c4ccccc34)cc2)cc1 [Example 115]
54 | < 50 | O=C(O)Cc1cnc(C(=O)c2ccc(NC(=O)c3ccc4occc4c3)cc2)c2ccccc12 [Example 116]
55 | 500 to 1000 | O=C(O)Cc1cnc(C(=O)c2ccc(NC(=O)c3ccc4nccnc4c3)cc2)c2ccccc12 [Example 117]
56 | 500 to 1000 | O=C(O)Cc1cnc(C(=O)c2ccc(NC(=O)c3cc(F)c(F)c(F)c3F)cc2)c2ccccc12 [Example 118]
57 | < 50 | O=C(O)Cc1cnc(C(=O)c2ccc(NC(=O)c3cc4ccccc4s3)cc2)c2ccccc12 [Example 119]
58 | < 50 | CCCCCCc1ccc(C(=O)Nc2ccc(C(=O)c3ncc(CC(=O)O)c4ccccc34)cc2)cc1 [Example 120]
59 | 50 to 500 | O=C(O)Cc1cnc(C(=O)c2ccc(NC(=O)c3cn4ccccc4n3)cc2)c2ccccc12 [Example 121]
60 | < 50 | O=C(O)Cc1cnc(C(=O)c2ccc(NC(=O)c3cc4cc(F)ccc4[nH]3)cc2)c2ccccc12 [Example 122]
61 | < 50 | Cn1c(C(=O)Nc2ccc(C(=O)c3ncc(CC(=O)O)c4ccccc34)cc2)cc2ccccc21 [Example 123]
62 | 500 to 1000 | O=C(O)Cc1cnc(C(=O)c2ccc(NC(=O)c3ccc4cnccc4n3)cc2)c2ccccc12 [Example 124]

— patent publication US8461329B2, “Isoquinoline derivative” (Taisho Pharmaceutical Co., Ltd., priority 2008, dated 2013)
